Source: PubChem BioAssay AID330 (DTP/NCI, 2004)
Where “and” joins values, the source holds several entries; their conditions need not be identical. Equal entries are not always repeated. Inconclusive results and toxic doses are left out.

Test system: P388 leukemia ip, CD2F1 mice, survival T/C
Experiment: NCI In Vivo Anticancer Drug Screen. Data for tumor model P388 Leukemia (intraperitoneal) in CD2F1 (CDF1) mice
Conditions: endpoint: median survival time, higher = longer survival
Outline: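 Mice carrying the transplanted tumor received test compound or vehicle. Survival was recorded in each group, and the value is the treated-group measurement divided by that of the vehicle-treated control group.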

[1] = dose: 100.0 mg/kg/injection, schedule: Q01DX001 (ip), vehicle: saline with Tween-80
[2] = dose: 200.0 mg/kg/injection, schedule: Q01DX001 (ip), vehicle: saline with Tween-80
[3] = dose: 400.0 mg/kg/injection, schedule: Q01DX001 (ip), vehicle: saline with Tween-80
[4] = dose: 100.0 mg/kg/injection, schedule: Q04DX003 (ip), vehicle: saline with Tween-80
[5] = dose: 200.0 mg/kg/injection, schedule: Q04DX003 (ip), vehicle: saline with Tween-80
[6] = dose: 50.0 mg/kg/injection, schedule: Q01DX005 (ip), vehicle: Klucel (hydroxypropylcellulose) (HPC)
[7] = dose: 100.0 mg/kg/injection, schedule: Q01DX005 (ip), vehicle: Klucel (hydroxypropylcellulose) (HPC)
[8] = dose: 200.0 mg/kg/injection, schedule: Q01DX005 (ip), vehicle: Klucel (hydroxypropylcellulose) (HPC)
[9] = dose: 60.0 mg/kg/injection, schedule: Q01DX005 (ip), vehicle: saline with Tween-80
[10] = dose: 120.0 mg/kg/injection, schedule: Q01DX005 (ip), vehicle: saline with Tween-80
[11] = dose: 240.0 mg/kg/injection, schedule: Q01DX005 (ip), vehicle: saline with Tween-80

SMILES: Cc1ccc(NC(=O)CCC(=O)NS(C)(=O)=O)cc1
- T/C [1]: 94 % of control
- T/C [2]: 94 % of control
- T/C [3]: 95 % of control

SMILES: O=C(O)/C=N/NS(=O)(=O)c1cccc(S(=O)(=O)N/N=C/C(=O)O)c1
- T/C (dose: 12.5 mg/kg/injection, schedule: Q01DX009 (ip), vehicle: water): 119 % of control

SMILES: CC[C@@]1(O)C(=O)OCc2c1cc1n(c2=O)Cc2cc3ccccc3nc2-1
- T/C (dose: 0.25 mg/kg/injection, schedule: Q04DX003 (ip), vehicle: other): 109 % of control
- T/C (dose: 0.5 mg/kg/injection, schedule: Q04DX003 (ip), vehicle: other): 119 % of control and 122 % of control
- T/C (dose: 0.79 mg/kg/injection, schedule: Q04DX003 (ip), vehicle: other): 151 % of control
- T/C (dose: 1.0 mg/kg/injection, schedule: Q04DX003 (ip), vehicle: other): 163 % of control
- T/C (dose: 1.5 mg/kg/injection, schedule: Q01DX005 (ip), vehicle: saline with Tween-80): 153 % of control and 161 % of control (2×)
- T/C (dose: 1.57 mg/kg/injection, schedule: Q04DX003 (ip), vehicle: other): 161 % of control
- T/C (dose: 1.6 mg/kg/injection, schedule: Q04DX003 (ip), vehicle: saline with Tween-80): 150 % of control
- T/C (dose: 2.0 mg/kg/injection, schedule: Q04DX003 (ip), vehicle: other): 157 % of control and 158 % of control
- T/C (dose: 2.1 mg/kg/injection, schedule: Q01DX005 (ip), vehicle: saline with Tween-80): 187 % of control
- T/C (dose: 2.5 mg/kg/injection, schedule: Q04DX003 (ip), vehicle: saline with Tween-80): 181 % of control
- T/C (dose: 3.0 mg/kg/injection, schedule: Q01DX005 (ip), vehicle: saline with Tween-80): 192 % of control and 194 % of control and 196 % of control
- T/C (dose: 3.13 mg/kg/injection, schedule: Q04DX003 (ip), vehicle: other): 278 % of control
- T/C (dose: 3.6 mg/kg/injection, schedule: Q01DX005 (ip), vehicle: saline with Tween-80): 277 % of control
- T/C (dose: 4.0 mg/kg/injection, schedule: Q04DX003 (ip), vehicle: other): 155 % of control and 197 % of control and 245 % of control
- T/C (dose: 5.0 mg/kg/injection, schedule: Q04DX002 (ip), vehicle: saline with Tween-80): 175 % of control
- T/C (dose: 8.0 mg/kg/injection, schedule: Q04DX003 (ip), vehicle: other): 92 % of control
- T/C (dose: 12.0 mg/kg/injection, schedule: Q01DX005 (ip), vehicle: saline with Tween-80): 87 % of control

SMILES: CC1C2=C(C(=O)N1Cc1ccccc1)C(C1OC(COC(=O)c3ccccc3)C(OC(=O)c3ccccc3)C1OC(=O)c1ccccc1)C(=O)N(C)C2=O (stereo not given)
- T/C (dose: 39.0 mg/kg/injection, schedule: Q01DX009 (ip), vehicle: Klucel (hydroxypropylcellulose) (HPC)): 97 % of control
- T/C (dose: 78.0 mg/kg/injection, schedule: Q01DX009 (ip), vehicle: Klucel (hydroxypropylcellulose) (HPC)): 99 % of control
- T/C (dose: 156.0 mg/kg/injection, schedule: Q01DX009 (ip), vehicle: Klucel (hydroxypropylcellulose) (HPC)): 95 % of control

SMILES: CCOC(=O)c1nc2cc(C)c(C)cc2[nH]c1=O
- T/C [4]: 95 % of control
- T/C [5]: 100 % of control
- T/C (dose: 400.0 mg/kg/injection, schedule: Q04DX003 (ip), vehicle: saline with Tween-80): 104 % of control

SMILES: CC(C)CC(C(=O)O)N(C)C(=O)OC(C)(C)C (stereo not given)
- T/C [6]: 101 % of control
- T/C [7]: 93 % of control
- T/C [8]: 99 % of control

SMILES: Clc1ccc(C2Oc3ccccc3-c3nc4ncccc4cc32)cc1 (stereo not given)
- T/C (dose: 25.0 mg/kg/injection, schedule: Q01DX005 (ip), vehicle: Klucel (hydroxypropylcellulose) (HPC)): 86 % of control
- T/C [6]: 86 % of control
- T/C [7]: 88 % of control
- T/C [8]: 91 % of control

SMILES: CN1NC(c2ccccc2)NN(C)C1=O
- T/C (dose: 50.0 mg/kg/injection, schedule: Q01DX005 (ip), vehicle: saline): 97 % of control
- T/C (dose: 100.0 mg/kg/injection, schedule: Q01DX005 (ip), vehicle: saline): 99 % of control
- T/C (dose: 200.0 mg/kg/injection, schedule: Q01DX005 (ip), vehicle: saline): 106 % of control

SMILES: CC[C@@H]1CN2CCc3c([nH]c4ccccc34)[C@@](C(=O)OC)(c3cc4c(cc3OC)N(C)[C@H]3[C@@](O)(C(=O)OC)[C@H](OC(C)=O)[C@]5(CC)C=CCN6CC[C@]43[C@@H]65)C[C@H](C2)[C@H]1O
- T/C (dose: 1.0 mg/kg/injection, schedule: Q01DX001 (ip), vehicle: water): 115 % of control
- T/C (dose: 2.0 mg/kg/injection, schedule: Q01DX001 (ip), vehicle: water): 115 % of control
- T/C (dose: 4.0 mg/kg/injection, schedule: Q01DX001 (ip), vehicle: water): 117 % of control and 118 % of control
- T/C (dose: 32.0 mg/kg/injection, schedule: Q01DX001 (ip), vehicle: water): 174 % of control
- T/C (dose: 64.0 mg/kg/injection, schedule: Q01DX001 (ip), vehicle: water): 150 % of control and 174 % of control

SMILES: CN1C2CCC1C1N=NN(c3cc(C(F)(F)F)cc(C(F)(F)F)c3)C1(N1CCOCC1)C2 (stereo not given)
- T/C (dose: 50.0 mg/kg/injection, schedule: Q01DX005 (ip), vehicle: Klucel + Tween-80): 102 % of control
- T/C (dose: 100.0 mg/kg/injection, schedule: Q01DX005 (ip), vehicle: Klucel + Tween-80): 97 % of control

SMILES: Cc1ccc(NS(=O)(=O)N2CCCCC2)cc1
- T/C (dose: 12.5 mg/kg/injection, schedule: Q01DX009 (ip), vehicle: Klucel (hydroxypropylcellulose) (HPC)): 106 % of control
- T/C (dose: 25.0 mg/kg/injection, schedule: Q01DX009 (ip), vehicle: Klucel (hydroxypropylcellulose) (HPC)): 95 % of control
- T/C (dose: 50.0 mg/kg/injection, schedule: Q01DX009 (ip), vehicle: Klucel (hydroxypropylcellulose) (HPC)): 98 % of control
- T/C (dose: 100.0 mg/kg/injection, schedule: Q01DX009 (ip), vehicle: Klucel (hydroxypropylcellulose) (HPC)): 116 % of control
- T/C (dose: 200.0 mg/kg/injection, schedule: Q01DX009 (ip), vehicle: Klucel (hydroxypropylcellulose) (HPC)): 115 % of control
- T/C (dose: 400.0 mg/kg/injection, schedule: Q01DX009 (ip), vehicle: Klucel (hydroxypropylcellulose) (HPC)): 113 % of control

SMILES: O=C1C(Cl)=C(N2CCN(C3=C(Cl)C(=O)c4ccccc4C3=O)CC2)C(=O)c2ccccc21
- T/C (dose: 1.5 mg/kg/injection, schedule: Q01DX009 (ip), vehicle: saline): 100 % of control and 104 % of control
- T/C (dose: 3.0 mg/kg/injection, schedule: Q01DX009 (ip), vehicle: saline): 100 % of control and 107 % of control
- T/C (dose: 6.0 mg/kg/injection, schedule: Q01DX009 (ip), vehicle: saline): 104 % of control and 97 % of control

SMILES: CC(=O)OCC(=O)[C@@]1(O)CC[C@H]2[C@@H]3C[C@H](C)C4=CC(=O)C=C[C@]4(C)[C@@]3(F)[C@@H](O)C[C@@]21C
- T/C (dose: 50.0 mg/kg/injection, schedule: Q04DX003 (ip), vehicle: saline with Tween-80): 109 % of control
- T/C (dose: 100.0 mg/kg/injection, schedule: Q01DX009 (ip), vehicle: saline with Tween-80): 100 % of control
- T/C [4]: 118 % of control
- T/C (dose: 200.0 mg/kg/injection, schedule: Q01DX009 (ip), vehicle: saline with Tween-80): 90 % of control
- T/C [5]: 118 % of control

SMILES: CCCCOC(=O)CNCC(=O)OCCCC
- T/C [9]: 100 % of control
- T/C [10]: 101 % of control
- T/C [11]: 104 % of control

SMILES: CC1NC(=O)C2Cc3ccc(O)c(c3)Oc3cccc(c3)C(O)C(C(=O)N2C)N(C)C(=O)C(C)NC(=O)C(Cc2ccc(O)c(O)c2)N(C)C(=O)C(C)NC1=O (stereo not given)
- T/C (dose: 16.0 mg/kg/injection, schedule: Q01DX009 (ip), vehicle: distilled water + Tween-80): 112 % of control
- T/C (dose: 32.0 mg/kg/injection, schedule: Q01DX009 (ip), vehicle: distilled water + Tween-80): 112 % of control
- T/C (dose: 64.0 mg/kg/injection, schedule: Q01DX009 (ip), vehicle: distilled water + Tween-80): 122 % of control

SMILES: CC(Nc1nncs1)Nc1nncs1
- T/C (dose: 30.0 mg/kg/injection, schedule: Q01DX005 (ip), vehicle: saline with Tween-80): 105 % of control
- T/C [10]: 159 % of control and 162 % of control
- T/C [11]: 160 % of control and 170 % of control

SMILES: C=CCOc1cc2c(cc1C(CC)c1ccc(OC)cc1)OCO2 (stereo not given)
- T/C [6]: 101 % of control
- T/C [7]: 103 % of control
- T/C [8]: 104 % of control

SMILES: Cc1ccc(C2N(CCN3C(=O)CS(=O)(=O)C3c3ccc(C)s3)C(=O)CS2(=O)=O)s1 (stereo not given)
- T/C [1]: 101 % of control
- T/C (dose: 100.0 mg/kg/injection, schedule: Q04DX002 (ip), vehicle: saline with Tween-80): 97 % of control
- T/C [2]: 94 % of control
- T/C (dose: 200.0 mg/kg/injection, schedule: Q04DX002 (ip), vehicle: saline with Tween-80): 87 % of control
- T/C [3]: 91 % of control

SMILES: FC(F)(F)c1ccc2nc(Cl)[nH]c2c1
- T/C (dose: 50.0 mg/kg/injection, schedule: Q01DX005 (ip), vehicle: saline with Tween-80): 98 % of control
- T/C (dose: 100.0 mg/kg/injection, schedule: Q01DX005 (ip), vehicle: saline with Tween-80): 98 % of control

SMILES: Cc1ccc(S(=O)(=O)N(CCCc2c(Cl)nc(N)nc2-c2ccccc2)c2ccccc2)cc1
- T/C [9]: 87 % of control
- T/C [10]: 87 % of control
- T/C [11]: 89 % of control
